Data on three compounds can be found in ChEMBL document CHEMBL1147784, “Crystal structure of human ERK2 complexed with a pyrazolo[3,4-c]pyridazine derivative” (Bioorg Med Chem Lett, 2006).

The target of this assay is Mitogen-activated protein kinase 1 (Homo sapiens, UniProt P28482). In words: Inhibitory activity against human ERK2.
Sequence of Mitogen-activated protein kinase 1 (P28482 whole entry): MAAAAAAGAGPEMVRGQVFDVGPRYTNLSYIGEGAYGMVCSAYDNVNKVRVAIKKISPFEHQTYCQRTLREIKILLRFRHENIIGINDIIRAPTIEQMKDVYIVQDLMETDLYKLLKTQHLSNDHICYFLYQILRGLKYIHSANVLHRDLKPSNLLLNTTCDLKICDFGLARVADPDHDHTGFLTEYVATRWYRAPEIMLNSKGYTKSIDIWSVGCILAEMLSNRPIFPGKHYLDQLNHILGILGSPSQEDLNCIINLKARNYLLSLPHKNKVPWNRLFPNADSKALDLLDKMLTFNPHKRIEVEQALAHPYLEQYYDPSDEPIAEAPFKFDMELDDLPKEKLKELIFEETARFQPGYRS
Usually IC50 stands for the concentration at which inhibition is half-maximal. Take `C=CCn1nc(N)c2cc(-c3c(-c4ccccc4)nn4ccccc34)nnc21`: the midpoint of inhibition, the IC50, lay at 560 nM.
The figure for `Nc1nn(CCO)c2nnc(-c3c(-c4ccccc4)nn4ccccc34)cc12` is 5100 nM; for `Cn1nc(N)c2cc(-c3c(-c4ccccc4)nn4ccccc34)nnc21` it is 1400 nM.
